Test results as given in US8926966B1 (Regents of the University of California, priority 1990, dated 2015).

Test system: IDDM associated autoantibodies in sera
Assay: ELISA of sera on plate-bound human GAD65 peptides
Format: binding
Details: for number of IDDM (at risk, pre-IDDM, at onset) patients positive (X) for the peptide (unlabelled sum line): IDDM sera of Table 11
Method: Patient sera and most control sera were those used in a previous study (Kaufman, et al., J. Clin. Investigation, supra) All samples were coded and tested in a blind manner. Peptides were synthesized using an automatic instrument (Applied Biosystems, Foster City, Calif.) and standard conditions. Peptides were dissolved in 60 mM sodium bicarbonate buffer (pH 9.6) at 20 ug/ml and 100 ul of each was added to duplicated wells of a 96 well Nunc-Immuno Plate. Peptides were allowed to bind at 4° C. overnight. The plates were then washed three times with PBS+0.1% Tween 20 (wash buffer), after which the plates were pre-absorbed with 3% BSA in sodium bicarbonate buffer for 0.5 hours at 37° C., or at room temperature overnight. The plates were then washed 5 times with the above wash buffer. 100 ul of serum at a 1/300 dilution in PBS+0.1% Tween 20 and 1% BSA was added to each well and antibodies were allowed to bind for 1 hour at 37° C. The plates were washed 5 times with wash buffer. 100 ul of a 1/600 dilution of HRP-goat anti-human IgG (BRL, Gaithersberg, Md.) was added to each well and allowed to bind for 1 hour at 37° C. The plates were then washed 7 times and 100 ul of substrate buffer was added to each well for 30 minutes at room temperature. The color development was measured at 410 nm using an ELISA plate reader (ICN, Biomedicals, Costa Mesa, Calif.). Positive sera were defined as: OD410 of the sample/negative control ≧3.0.

[1] = IDDM At Onset serum 048, 1/300 dilution
[2] = IDDM At Onset serum 291, 1/300 dilution
[3] = IDDM At Risk serum L.I., 1/300 dilution
[4] = Pre-IDDM serum P.T. (2), 1/300 dilution
[5] = IDDM At Risk serum 052, 1/300 dilution
[6] = IDDM At Onset serum 705, 1/300 dilution
[7] = IDDM At Onset serum S.H., 1/300 dilution
[8] = Pre-IDDM serum 723, 1/300 dilution
[9] = Pre-IDDM serum J.B. (2), 1/300 dilution
[10] = Pre-IDDM serum P.T. (1), 1/300 dilution
[11] = Pre-IDDM serum R.S. (2), 1/300 dilution

| Sequence | immunoreactivity of serum with GAD65 peptide [1] | immunoreactivity of serum with GAD65 peptide [2] | number of IDDM (at risk, pre-IDDM, at onset) patients positive (X) for the peptide (unlabelled sum line) | immunoreactivity of serum with GAD65 peptide [4] | immunoreactivity of serum with GAD65 peptide [5] | immunoreactivity of serum with GAD65 peptide [6] | immunoreactivity of serum with GAD65 peptide [9] | other results |
| --- | --- | --- | --- | --- | --- | --- | --- | --- |
| EYLYNIIKNREGYEMVFDGK [Peptide 32] | X (X = positive for immunoreactivity as defined by 00/background^3.0) | b (b = borderline response (00/background ?2.5-2.9).) | 1 | b (b = borderline response (00/background ?2.5-2.9).) | – | – | – | immunoreactivity of serum with GAD65 peptide [3]: b (b = borderline response (00/background ?2.5-2.9).); immunoreactivity of serum with GAD65 peptide (control serum 4380, 1/300 dilution): b (b = borderline response (00/background ?2.5-2.9).) |
| EYVTLKKMREIIGWPGGSGD [Peptide 15] | – | – | – | – | b (b = borderline response (00/background ?2.5-2.9).) | – | – | – |
| GLLMSRKHKLSGVERANS [Peptide 25] | X (X = positive for immunoreactivity as defined by 00/background^3.0) | X (X = positive for immunoreactivity as defined by 00/background^3.0) | 8 | X (X = positive for immunoreactivity as defined by 00/background^3.0) | – | X (X = positive for immunoreactivity as defined by 00/background^3.0) | b (b = borderline response (00/background ?2.5-2.9).) | controls whose sera recognized the peptide (13 control sera): 1 out of 13; number of control sera positive (X) for the peptide (unlabelled sum line) (13 control sera): 1; immunoreactivity of serum with GAD65 peptide [7]: X (X = positive for immunoreactivity as defined by 00/background^3.0); immunoreactivity of serum with GAD65 peptide (IDDM At Risk serum 356, 1/300 dilution): X (X = positive for immunoreactivity as defined by 00/background^3.0); immunoreactivity of serum with GAD65 peptide (IDDM At Risk serum 825, 1/300 dilution): b (b = borderline response (00/background ?2.5-2.9).); immunoreactivity of serum with GAD65 peptide [8]: X (X = positive for immunoreactivity as defined by 00/background^3.0); immunoreactivity of serum with GAD65 peptide [10]: b (b = borderline response (00/background ?2.5-2.9).); immunoreactivity of serum with GAD65 peptide (Pre-IDDM serum R.S. (1), 1/300 dilution): X (X = positive for immunoreactivity as defined by 00/background^3.0); immunoreactivity of serum with GAD65 peptide [11]: X (X = positive for immunoreactivity as defined by 00/background^3.0); immunoreactivity of serum with GAD65 peptide (control serum FA12, 1/300 dilution): b (b = borderline response (00/background ?2.5-2.9).); immunoreactivity of serum with GAD65 peptide (control serum S.M., 1/300 dilution): X (X = positive for immunoreactivity as defined by 00/background^3.0); patients whose sera recognized the peptide (patients previously shown to be 64K positive): 6/8 |
| GSGDSENPGTARAWCQVAQKFTG [Peptide 2] | – | – | – | – | b (b = borderline response (00/background ?2.5-2.9).) | – | – | immunoreactivity of serum with GAD65 peptide [7]: b (b = borderline response (00/background ?2.5-2.9).) |
| HATDLLPACDGERPTLAFLQ [Peptide 7] | – | b (b = borderline response (00/background ?2.5-2.9).) | – | b (b = borderline response (00/background ?2.5-2.9).) | – | – | b (b = borderline response (00/background ?2.5-2.9).) | immunoreactivity of serum with GAD65 peptide (Pre-IDDM serum J.B. (1), 1/300 dilution): b (b = borderline response (00/background ?2.5-2.9).) |
| KGTTGFEAHVDKCLELAEYLYN [Peptide 31] | – | – | – | b (b = borderline response (00/background ?2.5-2.9).) | b (b = borderline response (00/background ?2.5-2.9).) | – | – | immunoreactivity of serum with GAD65 peptide [10]: b (b = borderline response (00/background ?2.5-2.9).) |
| KHYDLSYDTGDKALQCGRHV [Peptide 29] | X (X = positive for immunoreactivity as defined by 00/background^3.0) | – | 4 | X (X = positive for immunoreactivity as defined by 00/background^3.0) | X (X = positive for immunoreactivity as defined by 00/background^3.0) | X (X = positive for immunoreactivity as defined by 00/background^3.0) | b (b = borderline response (00/background ?2.5-2.9).) | immunoreactivity of serum with GAD65 peptide [10]: X (X = positive for immunoreactivity as defined by 00/background^3.0) |
| KPCSCSKVDVNYAFLHATDL [Peptide 6] | X (X = positive for immunoreactivity as defined by 00/background^3.0) | – | 2 | – | X (X = positive for immunoreactivity as defined by 00/background^3.0) | – | – | immunoreactivity of serum with GAD65 peptide [11]: b (b = borderline response (00/background ?2.5-2.9).) |
| LAFLQDVMNILLQYVVKSFDRS [Peptide 8] | – | – | 2 | b (b = borderline response (00/background ?2.5-2.9).) | – | X (X = positive for immunoreactivity as defined by 00/background^3.0) | b (b = borderline response (00/background ?2.5-2.9).) | immunoreactivity of serum with GAD65 peptide [3]: X (X = positive for immunoreactivity as defined by 00/background^3.0); immunoreactivity of serum with GAD65 peptide [11]: b (b = borderline response (00/background ?2.5-2.9).) |
| LEAKQKGFVPFLVSATAGTT [Peptide 22] | – | X (X = positive for immunoreactivity as defined by 00/background^3.0) | 2 | b (b = borderline response (00/background ?2.5-2.9).) | – | X (X = positive for immunoreactivity as defined by 00/background^3.0) | b (b = borderline response (00/background ?2.5-2.9).) | – |
| LLYGDAEKPAESGGSQPPRA [Peptide 4] | – | X (X = positive for immunoreactivity as defined by 00/background^3.0) | – | b (b = borderline response (00/background ?2.5-2.9).) | – | – | b (b = borderline response (00/background ?2.5-2.9).) | – |
| QKFTGGIGIGNKLCALLYGD [Peptide 3] | X (X = positive for immunoreactivity as defined by 00/background^3.0) | b (b = borderline response (00/background ?2.5-2.9).) | – | – | – | – | – | immunoreactivity of serum with GAD65 peptide [7]: X (X = positive for immunoreactivity as defined by 00/background^3.0); immunoreactivity of serum with GAD65 peptide [3]: b (b = borderline response (00/background ?2.5-2.9).); immunoreactivity of serum with GAD65 peptide [8]: X (X = positive for immunoreactivity as defined by 00/background^3.0) |
| QNCNQMHASYLFQQDKHYDL [Peptide 28] | – | – | – | – | b (b = borderline response (00/background ?2.5-2.9).) | – | – | – |
